Patent US10173991B2, “Sulfone amide linked benzothiazole inhibitors of endothelial lipase” (BRISTOL-MYERS SQUIBB COMPANY, priority 2014, dated 2019)

Target: Endothelial lipase (EL) (Homo sapiens (Human), UniProt Q9Y5X9)
Assay: Endothelial lipase (EL) enzymatic assay with fluorescent substrate A10070 in DMPG vesicles
Format: biochemical
In short: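 Vesicles prepared: A10070 dried with DMPG, resuspended in HEPES pH 8.0/NaCl/EDTA, sonicated on ice. Enzyme incubated with compound 30 min at 37° C. Reaction started with 1:10 diluted vesicles. Fluorescence (490/530 nm) followed 60 min; slope from 300–900 secs gives rate.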

Chain of Endothelial lipase (EL) (Q9Y5X9 21-500): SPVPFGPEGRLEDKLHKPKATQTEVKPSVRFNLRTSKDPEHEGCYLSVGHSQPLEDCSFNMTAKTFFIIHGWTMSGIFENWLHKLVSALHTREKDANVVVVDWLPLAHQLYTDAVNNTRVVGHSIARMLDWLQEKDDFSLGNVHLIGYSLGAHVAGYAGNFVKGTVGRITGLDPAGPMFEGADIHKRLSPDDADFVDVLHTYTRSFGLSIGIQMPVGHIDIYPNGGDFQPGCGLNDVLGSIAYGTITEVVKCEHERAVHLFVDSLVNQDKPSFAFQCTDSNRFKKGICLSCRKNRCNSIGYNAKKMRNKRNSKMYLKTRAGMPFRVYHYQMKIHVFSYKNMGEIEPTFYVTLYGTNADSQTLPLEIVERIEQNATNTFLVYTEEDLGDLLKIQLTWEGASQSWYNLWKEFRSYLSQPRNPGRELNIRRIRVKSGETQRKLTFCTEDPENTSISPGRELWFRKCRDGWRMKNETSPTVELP

Row | SMILES | IC50
1 | COc1cc(-c2ccc3nc(C(C(=O)NCC(=O)NC4CC4)S(=O)(=O)c4ccc(F)cc4)sc3c2)ccn1 (centres unmarked) [Example 454, N-[(cyclopropyl-carbamoyl)methyl]-2-(4-fluorobenzene-sulfonyl)-2-[6-(2-methoxypyridin-4-yl)-1,3-benzothiazol-2-yl]acetamide] | 0.073 µM
2 | CC(C)OCCNC(=O)CNC(=O)C(c1nc2ccc(-c3ccc(F)nc3)cc2s1)S(=O)(=O)c1ccc(F)cc1 (centres unmarked) [Example 455, 2-(4-fluorobenzene-sulfonyl)-2-[6-(6-fluoropyridin-3-yl)-1,3-benzothiazol-2-yl]-N-({[2-(propan-2-yloxy)ethyl]carbamoyl}methyl)acetamide] | 0.1 µM
3 | COc1ccc(-c2ccc3nc(C(C(=O)NCC(=O)NC4CC4)S(=O)(=O)c4ccc(F)cc4)sc3c2)cn1 (centres unmarked) [Example 456, N-[(cyclopropyl-carbamoyl)methyl]-2-(4-fluorobenzene-sulfonyl)-2-[6-(6-methoxypyridin-3-yl)-1,3-benzothiazol-2-yl]acetamide] | 0.109 µM
4 | O=C(CNC(=O)C(c1nc2ccc(-c3ccc(F)nc3)cc2s1)S(=O)(=O)c1ccc(F)cc1)NC1CC1 (centres unmarked) [Example 457, N-[(cyclopropyl-carbamoyl)methyl]-2-(4-fluorobenzene-sulfonyl)-2-[6-(6-fluoropyridin-3-yl)-1,3-benzothiazol-2-yl]acetamide] | 0.024 µM
5 | Cn1ccc(-c2ccc3nc(C(C(=O)NCC(=O)NC4CC4)S(=O)(=O)c4ccc(F)cc4)sc3c2)cc1=O (centres unmarked) [Example 458, N-[(cyclopropyl-carbamoyl)methyl]-2-(4-fluorobenzene-sulfonyl)-2-[6-(1-methyl-2-oxo-1,2-dihydropyridin-4-yl)-1,3-benzothiazol-2-yl]acetamide] | 0.032 µM
6 | Cn1nccc1-c1ccc2nc(C(C(=O)NCC(=O)NC3CC3)S(=O)(=O)c3ccc(F)cc3)sc2c1 (centres unmarked) [Example 459, N-[(cyclopropyl-carbamoyl)methyl]-2-(4-fluorobenzene-sulfonyl)-2-[6-(1-methyl-1H-pyrazol-5-yl)-1,3-benzothiazol-2-yl]acetamide] | 0.018 µM
7 | O=C(CNC(=O)C(c1nc2ccc(-c3cncnc3)cc2s1)S(=O)(=O)c1ccc(F)cc1)NC1CC1 (centres unmarked) [Example 460, N-[(cyclopropyl-carbamoyl)methyl]-2-(4-fluorobenzene-sulfonyl)-2-[6-(pyrimidin-5-yl)-1,3-benzothiazol-2-yl]acetamide] | 0.047 µM
8 | COCCNC(=O)CNC(=O)C(c1nc2ccc(-c3ccc(F)nc3)cc2s1)S(=O)(=O)c1ccc(F)cc1 (centres unmarked) [Example 461, 2-(4-fluorobenzene-sulfonyl)-2-[6-(6-fluoropyridin-3-yl)-1,3-benzothiazol-2-yl]-N-{[(2-methoxyethyl)carbamoyl]methyl} acetamide] | 0.15 µM
9 | COCCNC(=O)CNC(=O)C(c1nc2ccc(-c3ccc(C(=O)NCCOC)cc3)cc2s1)S(=O)(=O)c1ccc(F)cc1 (centres unmarked) [Example 462, 4-{2-[(4-fluorobenzene-sulfonyl)({[(2-methoxyethyl)carbamoyl]methyl}carbamoyl)methyl]-1,3-benzothiazol-6-yl}-N-(2-methoxyethyl) benzamide] | 0.004 µM
10 | COCCNC(=O)CNC(=O)C(c1nc2ccc(-c3ccn(C)c(=O)c3)cc2s1)S(=O)(=O)c1ccc(F)cc1 (centres unmarked) [Example 463, 2-(4-fluorobenze-nesulfonyl)-N-{[(2-methoxyethyl)carbamoyl]methyl}-2-[6-(1-methyl-2-oxo-1,2-dihydropyridin-4-yl)-1,3-benzothiazol-2-yl]acetamide] | 0.024 µM
11 | CC(C)OCCNC(=O)CNC(=O)C(c1nc2ccc(-c3ccn(C)c(=O)c3)cc2s1)S(=O)(=O)c1ccc(F)cc1 (centres unmarked) [Example 464, 2-(4-fluorobenzene-sulfonyl)-2-[6-(1-methyl-2-oxo-1,2-dihydropyridin-4-yl)-1,3-benzothiazol-2-yl]-N-({[2-(propan-2-yloxy)ethyl]carbamoyl}methyl)acetamide] | 0.045 µM
12 | CC(C)OCCNC(=O)CNC(=O)C(c1nc2cc(F)cc(-c3ccc(F)nc3)c2s1)S(=O)(=O)c1ccc(F)cc1 (centres unmarked) [Example 465, 2-[5-fluoro-7-(6-fluoropyridin-3-yl)-1,3-benzothiazol-2-yl]-2-(4-fluorobenzene-sulfonyl)-N-({[2-(propan-2-yloxy)ethyl]carbamoyl}methyl)acetamide] | 0.053 µM
13 | CC(C)OCCNC(=O)CNC(=O)C(c1nc2cc(F)cc(-c3cnc(C4CC4)nc3)c2s1)S(=O)(=O)c1ccc(F)cc1 (centres unmarked) [Example 466, 2-[7-(2-cyclopropyl-pyrimidin-5-yl)-5-fluoro-1,3-benzothiazol-2-yl]-2-(4-fluorobenzene-sulfonyl)-N-({[2-(propan-2-yloxy)ethyl]carbamoyl}methyl)acetamide] | 0.157 µM
14 | O=C(CNC(=O)C(c1nc2ccc(-c3ccc(F)nc3)cc2s1)S(=O)(=O)c1cccnc1)NC1CC1 (centres unmarked) [Example 467, N-[(cyclopropyl-carbamoyl)methyl]-2-[6-(6-fluoropyridin-3-yl)-1,3-benzothiazol-2-yl]-2-(pyridine-3-sulfonyl) acetamide] | 0.193 µM
15 | O=C(CNC(=O)C(c1nc2ccc(-c3ccc4c(c3)CNC4=O)cc2s1)S(=O)(=O)c1cccnc1)NC1CC1 (centres unmarked) [Example 468, N-[(cyclopropyl-carbamoyl)methyl]-2-[6-(1-oxo-2,3-dihydro-1H-isoindol-5-yl)-1,3-benzothiazol-2-yl]-2-(pyridine-3-sulfonyl) acetamide] | 0.006 µM
16 | Cc1ncc(-c2cc(C)c3nc(C(C(=O)NCC(=O)NC4CC4)S(=O)(=O)c4ccc(F)cc4)sc3c2)cn1 (centres unmarked) [Example 469, N-[(cyclopropyl-carbamoyl)methyl]-2-(4-fluorobenzene-sulfonyl)-2-[4-methyl-6-(2-methylpyrimidin-5-yl)-1,3-benzothiazol-2-yl]acetamide] | 0.041 µM
17 | CC(C)n1cc(-c2cc(F)c3nc(C(C(=O)NCC(=O)NC4CC4)S(=O)(=O)c4ccc(F)cc4)sc3c2)ccc1=O (centres unmarked) [Example 470, N-[(cyclopropyl-carbamoyl)methyl]-2-{4-fluoro-6-[6-oxo-1-(propan-2-yl)-1,6-dihydropyridin-3-yl]-1,3-benzothiazol-2-yl}-2-(4-fluorobenzene-sulfonyl)acetamide] | 0.016 µM
18 | Cc1ncc(-c2cc(F)c3nc(C(C(=O)NCC(=O)NC4CC4)S(=O)(=O)c4ccc(F)cc4)sc3c2)cn1 (centres unmarked) [Example 471, N-[(cyclopropyl-carbamoyl)methyl]-2-[4-fluoro-6-(2-methylpyrimidin-5-yl)-1,3-benzothiazol-2-yl]-2-(4-fluorobenzene-sulfonyl)acetamide] | 0.023 µM
19 | O=C(CNC(=O)C(c1nc2c(F)cc(-c3ccc(F)nc3)cc2s1)S(=O)(=O)c1ccc(F)cc1)NC1CC1 (centres unmarked) [Example 472, N-[(cyclopropyl-carbamoyl)methyl]-2-[4-fluoro-6-(6-fluoropyridin-3-yl)-1,3-benzothiazol-2-yl]-2-(4-fluorobenzene-sulfonyl)acetamide] | 0.023 µM
20 | Cn1ccc(-c2cc(F)c3nc(C(C(=O)NCC(=O)NC4CC4)S(=O)(=O)c4ccc(F)cc4)sc3c2)cc1=O (centres unmarked) [Example 473, N-[(cyclopropyl-carbamoyl)methyl]-2-[4-fluoro-6-(1-methyl-2-oxo-1,2-dihydropyridin-4-yl)-1,3-benzothiazol-2-yl]-2-(4-fluorobenzene-sulfonyl)acetamide] | 0.077 µM
